Test system: Myzus persicae (Green peach aphid)
Assay: Efficacy of chlorpyrifos-ethyl with boronic acids on aphids on broad bean leaves
Type: in vivo
Details: for Percentage of efficacy: boronic acid where present 0.2 mg/ml
Experimental: Experimentations was carried out in BIOtransfer, France under controlled conditions.
Bean leaves were treated with chlorpyrifos 480 EC (480 g a.i./1) at 4 application rates (360, 180, 90, 45 g a.i./ha), used alone or in combination with 3 boronic acid (BA) derivates (3.10, 5 and 3.7) each at 0.2 mg/ml. The treatment was performed with an agricultural nozzle (300 L per hectare) […]. A non-treated control condition were also evaluated in parallel. Statistical analysis of the data was then performed. When the leaves were totally dry, 3 leaves were sampled and infested with 3 wingless adults of M. persicae per leaf fragment.
• T+1 (DAT 1)—One day later the number of adults remaining on the leaves was counted. • T+3 (DAT 3)—3 days after treatment the aphid population was estimated; • T+7 (DAT 7)—7 days after treatment the development of aphid population was estimated.
3 bean leaves fragments per microbox*4 microbox per condition (1 condition is 1 formulation at 1 dose)*9 adult aphids per microbox*4 insecticides (3 chlorpyrifos derivates+clorpyrifos alone)*4 rates+2 controls (1 reference insecticide formulation at one dose and non-treated)*3 assessments timings (DAT+1, DAT+3 and DAT+7).

SMILES: CCOP(=S)(OCC)Oc1nc(Cl)c(Cl)cc1Cl [CPE, Chlorpyrifos-ethyl]
- Percentage of efficacy (CPE 0.7, 1 DAT): 38%
- Percentage of efficacy (CPE 0.7, 3 DAT): 20%
- Percentage of efficacy (CPE 0.7, 7 DAT): 25%
- Percentage of efficacy (CPE 1.4, 1 DAT): 41%
- Percentage of efficacy (CPE 1.4, 3 DAT): 27%
- Percentage of efficacy (CPE 1.4, 7 DAT): 25%
- Percentage of efficacy (CPE 2.8, 1 DAT): 32%
- Percentage of efficacy (CPE 2.8, 3 DAT): 26%
- Percentage of efficacy (CPE 2.8, 7 DAT): 23%
- Percentage of efficacy (CPE 5.6, 1 DAT): 36%
- Percentage of efficacy (CPE 5.6, 3 DAT): 48%
- Percentage of efficacy (CPE 5.6, 7 DAT): 67%
- Calibration results (efficacy) (CPE 1.4, 1 DAT): 33%
- Calibration results (efficacy) (CPE 1.4, 3 DAT): 51%
- Calibration results (efficacy) (CPE 1.4, 7 DAT): 51%
- Calibration results (efficacy) (CPE 2.8, 1 DAT): 31%
- Calibration results (efficacy) (CPE 2.8, 3 DAT): 79%
- Calibration results (efficacy) (CPE 2.8, 7 DAT): 99%
- Calibration results (efficacy) (CPE 5.6, 1 DAT): 67%
- Calibration results (efficacy) (CPE 5.6, 3 DAT): 98%
- Calibration results (efficacy) (CPE 5.6, 7 DAT): 100%

Source: patent publication US20190327974A1, “SYNERGISTS FOR IMPROVED PESTICIDES” (priority 2017, published 2019)
